Measurements: patent US8557831B2, “Compositions and methods for treatment and prevention of insulin resistance” (University of Florida Research Foundation, Inc., priority 2004, dated 2013)

Assays:
Male Sprague-Dawley rats [1] = assay: Systolic blood pressure by tail-cuff sphygmomanometer in hyperuricemic rats; assay type: in vivo, rat; details: 7 days, p=NS
Male Sprague-Dawley rats [2] = assay: Serum nitrites/nitrates (NOx) by chemiluminescence method in hyperuricemic rats; assay type: in vivo, rat
Description: (§1) Male Sprague-Dawley rats were housed in standard conditions and fed normal diets. Hyperuricemia was induced with an uricase inhibitor, oxonic acid (OA; 750 mg/kg/day), by gavage, with control rats receiving vehicle. Allopurinol (AP) was used to block hyperuricemia by placing AP in the drinking water (150 mg/L). Rats were divided into four groups: (1) Control, (2) AP only, (3) OA only, and (4) OA+AP. Systolic blood pressure was measured using a tail-cuff sphygmomanometer. The amount of drinking water consumed and changes in body weight were noted. Rats were sacrificed at one and seven days. Serum was analyzed for uric acid concentration and nitrites/nitrates (NOx) by chemiluminescence method. (Prabhakar S S: Inhibition of mesangial iNOS by reduced extracellular pH is associated with uncoupling of NADPH oxidation. Kidney Int 61:2015-2024, 2002). Statistical analysis between subgroups was performed using ANOVA.

Male Sprague-Dawley rats [3] = assay: Serum uric acid concentration in oxonic acid-induced hyperuricemia rat model; assay type: in vivo
Description: as §1

| SMILES | systolic blood pressure (Male Sprague-Dawley rats [1]) [mm Hg] | serum nitrites and nitrates (NOx) (Male Sprague-Dawley rats [2]; OA only group, 1 day) [µmol/L] | serum nitrites and nitrates (NOx) (Male Sprague-Dawley rats [2]; OA only group, 7 days) [µmol/L] | reduction of serum nitrites and nitrates (NOx) vs. Control (Male Sprague-Dawley rats [2]; hyperuricemic (OA) rats, at both 1 day and 7 days) | serum uric acid (Male Sprague-Dawley rats [3]; OA only group, 750 mg/kg/day by gavage, 1 day) [mg/dL] | serum uric acid (Male Sprague-Dawley rats [3]; OA only group, 750 mg/kg/day by gavage, 7 days) [mg/dL] | serum nitrites and nitrates (NOx) (Male Sprague-Dawley rats [2]; OA+AP group, 1 day) [µmol/L] | serum nitrites and nitrates (NOx) (Male Sprague-Dawley rats [2]; OA+AP group, 7 days) [µmol/L] | change in serum NOx concentration (Male Sprague-Dawley rats [2]; rats treated with AP alone) | serum uric acid (Male Sprague-Dawley rats [3]; OA+AP group (AP 150 mg/L in drinking water), 7 days) [mg/dL] | serum uric acid (Male Sprague-Dawley rats [3]; OA+AP group (AP 150 mg/L in drinking water), day 1) [mg/dL] | change in serum UA concentration (Male Sprague-Dawley rats [3]; rats treated with AP alone) |
| --- | --- | --- | --- | --- | --- | --- | --- | --- | --- | --- | --- | --- |
| O=C(O)c1nc(=O)[nH]c(=O)[nH]1 [OA, oxonic acid] | 178±18 | 15.6 ± 0.4 | 14.6 ± 1.1 | 40-50% | 1.7 ± 0.7 | 1.8 ± 0.4 |  |  |  |  |  |  |
| Oc1ncnc2[nH]ncc12 [AP, Allopurinol] |  |  |  |  |  |  | 17.4 ± 0.8 | 25.0 ± 0.8 | did not show a significant change | 0.3 ± 0.2 | 1.52 ± 0.3 | did not show a significant change |
